Reference: patent US11813305B2, “Endoplasmic reticulum stress as a predictive tool in cancer therapy and a combination therapy for the treatment of cancer” (IMMUNE SYSTEM KEY LTD., priority 2016, dated 2023)
Square brackets hold non-standard residues; d marks the D form. Peptide text beside a SMILES is read from it.

Test: Safety and tolerability (adverse events, DLT, MTD), phase I study
Format: in vivo, human
Source text: The present clinical study is a formal open label phase I dose escalation study. The primary objective was to determine the maximum tolerated dose (MTD) and safety profile of dTCApFs. Assessments included drug exposure, adverse events (AEs; graded according to the Common Terminology Criteria for Adverse Events (CTCAE), and characterization of dose-limiting toxicities (DLTs). Other objectives included assessment of serum levels of angiogenic factors after dTCApFs administration, pharmacokinetics (PK) and pharmacodynamics (PD) analyses, as well as assessment of receptor staining and tumor response. […]
Subjects with evaluable or measurable disease are assessed according to the response evaluation criteria in solid tumors (RECIST) version 1.1 every 2 cycles, where a cycle is defined as 4 weeks of treatment with three administrations per week. Tumor lesion measurements and changes from baseline are summarized by cycle and dose cohort.

## CC(C)C[C@@H](NC(=O)[C@H](NC(=O)[C@@H](CO)NC(=O)[C@H]1CCCN1C(=O)[C@@H](CC(C)C)NC(=O)[C@@H](Cc1ccccc1)NC(=O)[C@@H](Cc1ccccc1)NC(=O)[C@H](NC(=O)[C@@H](Cc1c[nH]c2ccccc12)NC(=O)[C@H](N)Cc1c[nH]c2ccccc12)[C@H](C)O)[C@H](C)O)C(=O)N[C@H](Cc1c[nH]c2ccccc12)C(=O)N[C@H](CCC(=O)O)C(=O)N[C@H](CCCNC(=N)N)C(=O)N[C@H](CCCCN)C(=O)O [dTCApFs, Trp Trp Thr Phe Phe Leu Pro Ser Thr Leu Trp Glu Arg Lys] (H-[dW][dW][dT][dF][dF][dL][dP][dS][dT][dL][dW][dE][dR][dK]-OH; N-terminus and C-terminus assumed)
6 mg/m^2, n = 3
  Adverse event Grade 1: Abdominal pain: 0
  Adverse event Grade 1: Anemia: 3
  Adverse event Grade 1: Bowel obstruction: 1
  Adverse event Grade 1: Dehydration: 0
  Adverse event Grade 1: Diarrhea: 0
  Adverse event Grade 1: Fatigue: 0
  Adverse event Grade 1: GI hemorrhage: 1
  Adverse event Grade 1: Hypertension: 3
  Adverse event Grade 1: Increased INR: 0
  Adverse event Grade 1: Neuropathy: 0
  Adverse event Grade 1: Vomiting: 2
  Adverse event Grade 2: ALT increase: 0
  Adverse event Grade 2: AST increase: 0
  Adverse event Grade 2: Bilirubin increase: 0
  Adverse event Grade 2: Cough: 0
  Adverse event Grade 2: Liver dysfunction: 0
  Adverse event Grade 2: Pain, leg: 0
  Adverse event Grade 2: Pain, upper back: 0
  Adverse event Grade 2: Pruritus: 0
  Adverse event Grade 2: Urinary tract infection: 0
  Adverse event Grade 2: Urticaria: 0
  Adverse event Grade 3: Bilirubin increase: 0
  Adverse event Grade 3: Bowel obstruction: 1
  Adverse event Grade 3: Diarrhea: 0
  Adverse event Grade 3: GI hemorrhage: 1
  Adverse event Grade 3: Hypertension: 2
  Adverse event Grade 3: Increased INR: 0
  Adverse event Grade 4: Vomiting: 0
12 mg/m^2, n = 3
  Adverse event Grade 1: Abdominal pain: 1
  Adverse event Grade 1: Anemia: 0
  Adverse event Grade 1: Bowel obstruction: 0
  Adverse event Grade 1: Dehydration: 0
  Adverse event Grade 1: Diarrhea: 2
  Adverse event Grade 1: Fatigue: 1
  Adverse event Grade 1: GI hemorrhage: 0
  Adverse event Grade 1: Hypertension: 1
  Adverse event Grade 1: Increased INR: 0
  Adverse event Grade 1: Neuropathy: 1
  Adverse event Grade 1: Vomiting: 0
  Adverse event Grade 2: ALT increase: 0
  Adverse event Grade 2: AST increase: 0
  Adverse event Grade 2: Bilirubin increase: 0
  Adverse event Grade 2: Cough: 1
  Adverse event Grade 2: Liver dysfunction: 0
  Adverse event Grade 2: Pain, leg: 2
  Adverse event Grade 2: Pain, upper back: 0
  Adverse event Grade 2: Pruritus: 0
  Adverse event Grade 2: Urinary tract infection: 1
  Adverse event Grade 2: Urticaria: 0
  Adverse event Grade 3: Bilirubin increase: 0
  Adverse event Grade 3: Bowel obstruction: 0
  Adverse event Grade 3: Diarrhea: 1
  Adverse event Grade 3: GI hemorrhage: 0
  Adverse event Grade 3: Hypertension: 1
  Adverse event Grade 3: Increased INR: 0
  Adverse event Grade 4: Vomiting: 0
24 mg/m^2, n = 3
  Adverse event Grade 1: Abdominal pain: 2
  Adverse event Grade 1: Anemia: 0
  Adverse event Grade 1: Bowel obstruction: 0
  Adverse event Grade 1: Dehydration: 0
  Adverse event Grade 1: Diarrhea: 0
  Adverse event Grade 1: Fatigue: 0
  Adverse event Grade 1: GI hemorrhage: 0
  Adverse event Grade 1: Hypertension: 1
  Adverse event Grade 1: Increased INR: 0
  Adverse event Grade 1: Neuropathy: 1
  Adverse event Grade 1: Vomiting: 0
  Adverse event Grade 2: ALT increase: 0
  Adverse event Grade 2: AST increase: 0
  Adverse event Grade 2: Bilirubin increase: 0
  Adverse event Grade 2: Cough: 0
  Adverse event Grade 2: Liver dysfunction: 0
  Adverse event Grade 2: Pain, leg: 0
  Adverse event Grade 2: Pain, upper back: 0
  Adverse event Grade 2: Pruritus: 0
  Adverse event Grade 2: Urinary tract infection: 0
  Adverse event Grade 2: Urticaria: 0
  Adverse event Grade 3: Bilirubin increase: 0
  Adverse event Grade 3: Bowel obstruction: 0
  Adverse event Grade 3: Diarrhea: 0
  Adverse event Grade 3: GI hemorrhage: 0
  Adverse event Grade 3: Hypertension: 1
  Adverse event Grade 3: Increased INR: 0
  Adverse event Grade 4: Vomiting: 0
48 mg/m^2, n = 3
  Adverse event Grade 1: Abdominal pain: 0
  Adverse event Grade 1: Anemia: 0
  Adverse event Grade 1: Bowel obstruction: 0
  Adverse event Grade 1: Dehydration: 0
  Adverse event Grade 1: Diarrhea: 0
  Adverse event Grade 1: Fatigue: 1
  Adverse event Grade 1: GI hemorrhage: 0
  Adverse event Grade 1: Hypertension: 0
  Adverse event Grade 1: Increased INR: 1
  Adverse event Grade 1: Neuropathy: 0
  Adverse event Grade 1: Vomiting: 0
  Adverse event Grade 2: ALT increase: 0
  Adverse event Grade 2: AST increase: 0
  Adverse event Grade 2: Bilirubin increase: 1
  Adverse event Grade 2: Cough: 0
  Adverse event Grade 2: Liver dysfunction: 0
  Adverse event Grade 2: Pain, leg: 0
  Adverse event Grade 2: Pain, upper back: 0
  Adverse event Grade 2: Pruritus: 0
  Adverse event Grade 2: Urinary tract infection: 0
  Adverse event Grade 2: Urticaria: 0
  Adverse event Grade 3: Bilirubin increase: 1
  Adverse event Grade 3: Bowel obstruction: 0
  Adverse event Grade 3: Diarrhea: 0
  Adverse event Grade 3: GI hemorrhage: 0
  Adverse event Grade 3: Hypertension: 0
  Adverse event Grade 3: Increased INR: 1
  Adverse event Grade 4: Vomiting: 0
96 mg/m^2, n = 5
  Adverse event Grade 1: Abdominal pain: 0
  Adverse event Grade 1: Anemia: 0
  Adverse event Grade 1: Bowel obstruction: 0
  Adverse event Grade 1: Dehydration: 1
  Adverse event Grade 1: Diarrhea: 2
  Adverse event Grade 1: Fatigue: 0
  Adverse event Grade 1: GI hemorrhage: 0
  Adverse event Grade 1: Hypertension: 1
  Adverse event Grade 1: Increased INR: 0
  Adverse event Grade 1: Neuropathy: 0
  Adverse event Grade 1: Vomiting: 1
  Adverse event Grade 2: ALT increase: 1
  Adverse event Grade 2: AST increase: 1
  Adverse event Grade 2: Bilirubin increase: 1
  Adverse event Grade 2: Cough: 0
  Adverse event Grade 2: Liver dysfunction: 1
  Adverse event Grade 2: Pain, leg: 0
  Adverse event Grade 2: Pain, upper back: 1
  Adverse event Grade 2: Pruritus: 1
  Adverse event Grade 2: Urinary tract infection: 0
  Adverse event Grade 2: Urticaria: 2
  Adverse event Grade 3: Bilirubin increase: 1
  Adverse event Grade 3: Bowel obstruction: 0
  Adverse event Grade 3: Diarrhea: 1
  Adverse event Grade 3: GI hemorrhage: 0
  Adverse event Grade 3: Hypertension: 2
  Adverse event Grade 3: Increased INR: 0
  Adverse event Grade 4: Vomiting: 1
AEs of Table 4
  relation of adverse events (AEs) to study drug: None were related to study drug
All dose groups
  grade 4 AE vomiting, number of patients: 1
Any patient up to cohort 5 (6-96 mg/m^2)
  dose-limiting toxicities (DLTs): No dose-limiting toxicities (DLTs) were observed
Doses of 6, 12, 24, 48, and 96 mg/m^2 i.v., 3 times/week
  MTD: not reached
overall, 17 patients
  tolerability of treatment: well-tolerated with no cumulative toxicity
